Measurements from PubChem BioAssay (NCI).
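The compound was tested at five concentrations on cells cultured in 96-well plates, with a 48-hour exposure period. TGI: concentration producing complete growth inhibition.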

Assays:
Test in all cases: inhibition of tumour cell growth, NCI panel, 48 h
HL-60(TB) leukemia = tested on: HL-60(TB) leukemia
MALME-3M melanoma = tested on: MALME-3M melanoma
SK-MEL-5 melanoma = tested on: SK-MEL-5 melanoma
HS 578T breast = tested on: HS 578T breast
SF-268 CNS = tested on: SF-268 CNS
CCRF-CEM leukemia = tested on: CCRF-CEM leukemia
OVCAR-3 ovarian = tested on: OVCAR-3 ovarian
HOP-62 NSCLC = tested on: HOP-62 NSCLC
NCI-H522 lung = tested on: NCI-H522 lung
K-562 leukemia = tested on: K-562 leukemia
SK-MEL-28 melanoma = tested on: SK-MEL-28 melanoma
HCC-2998 colon = tested on: HCC-2998 colon
SN12C renal = tested on: SN12C renal
UACC-62 melanoma = tested on: UACC-62 melanoma
MDA-MB-231 breast = tested on: MDA-MB-231 breast
MDA-MB-435 = tested on: MDA-MB-435
MOLT-4 leukemia = tested on: MOLT-4 leukemia
RPMI-8226 leukemia = tested on: RPMI-8226 leukemia

Row | SMILES | TGI (HL-60(TB) leukemia) | TGI (MALME-3M melanoma) | TGI (SK-MEL-5 melanoma) | TGI (HS 578T breast) | TGI (SF-268 CNS) | TGI (CCRF-CEM leukemia) | TGI (OVCAR-3 ovarian) | TGI (HOP-62 NSCLC) | TGI (NCI-H522 lung) | TGI (K-562 leukemia) | TGI (SK-MEL-28 melanoma) | TGI (HCC-2998 colon) | TGI (SN12C renal) | TGI (UACC-62 melanoma) | TGI (MDA-MB-231 breast) | TGI (MDA-MB-435) | TGI (MOLT-4 leukemia) | TGI (RPMI-8226 leukemia)
1 | C[C@H]1O[C@@H](c2c(O)ccc3ccccc23)C[C@@H](N(C)C)C1O (some centres not stated) | > 100 µM | > 100 µM | > 100 µM | > 100 µM | > 100 µM | > 100 µM | > 100 µM | > 100 µM | > 100 µM | > 100 µM | > 100 µM | > 100 µM | > 100 µM | > 100 µM | > 100 µM | > 100 µM |  | 
2 | CCOC(=O)c1cc2c(ccc3cc(C(=O)OCC)[nH]c32)[nH]1 |  | > 100 µM | 98.4 µM | 58.6 µM | > 100 µM | > 100 µM | > 100 µM | 59 µM | > 100 µM | > 100 µM | 25.7 µM | > 100 µM | 89.1 µM | > 100 µM | 28.7 µM | > 100 µM | > 100 µM | > 100 µM
3 | CC(=N/NC(=S)N1CCCCC1)/C(=N\NC(=S)N1CCCCC1)c1ccccc1 |  | 3.96 µM | 3.57 µM | 4.82 µM | 3.37 µM |  | 3.34 µM | 4.43 µM | 4.18 µM | > 100 µM | 3.94 µM | 4.48 µM | 3.43 µM | 3.87 µM | > 19.8 µM | 4.07 µM | > 100 µM | > 100 µM
4 | COc1ccc(NC(=O)CC(=O)N2N=C(N3CCCCC3)CC2c2ccccc2)cc1 (configuration not stated) | > 100 µM | > 100 µM | > 100 µM | > 100 µM | > 100 µM | > 100 µM | > 100 µM | > 100 µM | > 100 µM |  | > 100 µM | > 100 µM | > 100 µM | > 100 µM | > 100 µM | > 100 µM | > 100 µM | 
5 | COc1cc2cc(C(=O)N3CC(CCl)c4c3cc([N+](=O)[O-])c3ccccc43)[nH]c2c(OC)c1OC (configuration not stated) |  | > 100 µM | > 100 µM | > 100 µM | > 100 µM | > 100 µM | > 100 µM | > 100 µM | > 100 µM | > 100 µM | > 100 µM | > 100 µM | > 100 µM | > 100 µM | > 100 µM | > 100 µM | > 100 µM | > 100 µM
6 | CC1Cc2c(Br)nc(N)nc2NC1=O (configuration not stated) |  | > 100 µM | > 100 µM | > 100 µM | > 100 µM |  | > 100 µM | > 100 µM | > 100 µM | > 100 µM | > 100 µM | > 100 µM | > 100 µM | > 100 µM | > 100 µM | > 100 µM | > 100 µM | > 100 µM
7 | COc1ccccc1C1SCC(=O)N1c1ccc(-n2c(-c3ccccc3)nc3ccccc3c2=O)cc1 (configuration not stated) |  | > 100 µM | > 100 µM | > 100 µM | > 100 µM | > 100 µM | > 100 µM | > 100 µM | > 100 µM | > 100 µM | > 100 µM | > 100 µM | > 100 µM | > 100 µM | > 100 µM | > 100 µM | > 100 µM | > 100 µM
8 | CC(C)=CCC[C@@H](C)C1=C(O)C(Nc2ccccc2Br)=C(C)C(=O)C1=O | 5.52 µM | 26 µM | 16.1 µM | 49.3 µM | > 50.4 µM | 12.7 µM | 35.6 µM | 36.8 µM |  | > 69.9 µM | > 80.6 µM | > 69.9 µM | 28.2 µM | 38.5 µM | 61.9 µM | > 65.7 µM | 25.5 µM | > 58.6 µM
9 | COc1cc(O)cc(/C=C/c2ccc(O)cc2)c1 | > 100 µM | > 100 µM | > 100 µM | > 100 µM | > 100 µM |  | > 100 µM | > 100 µM | > 100 µM | 98.2 µM | > 100 µM |  | 77.8 µM | 60.5 µM | 47.9 µM | > 100 µM | > 100 µM | 25.7 µM
10 | O=C1/C(=C\c2ccc(Cl)cc2Cl)Sc2scc(-c3cccc([N+](=O)[O-])c3)[n+]21 |  | 22.9 µM | 7.93 µM | > 100 µM | 57.8 µM |  | 23.4 µM | 37.1 µM | 4.32 µM | > 100 µM | 59.2 µM | 20.5 µM | 18.4 µM | 21.6 µM | 25.1 µM | 27.8 µM | 3.94 µM | 26.9 µM
11 | CC(C)(C)OC(=O)N(O)[C@@H]1C=C[C@H](n2cnc3c(N)ncnc32)C1 |  | > 100 µM | > 100 µM | > 100 µM | > 100 µM | > 100 µM | > 100 µM | > 100 µM | > 100 µM | > 100 µM | > 100 µM | > 100 µM | > 100 µM | > 100 µM | > 100 µM | > 100 µM | > 100 µM | > 100 µM
12 | O=C1CCCCC/C1=C\c1ccc(F)cc1 |  | > 100 µM | > 100 µM | > 100 µM | > 100 µM | 59.8 µM | > 100 µM | > 100 µM | > 100 µM | > 100 µM | > 100 µM | > 100 µM | > 100 µM | > 100 µM | > 100 µM | > 100 µM | > 100 µM | > 100 µM
13 | CCN(CC)CC(=O)Nc1c(C(N)=O)nnn1Cc1cc(Cl)c(C(=O)c2ccc(Cl)cc2)c(Cl)c1 | 39.5 µM |  | 30.4 µM | 33 µM | 45.5 µM | 41.5 µM | 31.7 µM | 34.2 µM | 41.3 µM | 37.4 µM | 33.3 µM | 32.1 µM | 50.3 µM | 35.4 µM | 34.8 µM | 37.2 µM | 56 µM | 77.7 µM
14 | OCC(CN1CCCCC1)(CN1CCCCC1)CN1CCCCC1 | > 100 µM | > 100 µM | > 100 µM | > 100 µM | > 100 µM | > 100 µM | > 100 µM | > 100 µM | > 100 µM | > 100 µM | > 100 µM | > 100 µM | > 100 µM | > 100 µM | > 100 µM | > 100 µM | > 100 µM | 
